For ten compounds, IC50 results are on record in patent US8962608B2, “Cycloalkylnitrile pyrazole carboxamides as janus kinase inhibitors” (Merck Sharp & Dohme Corp., priority 2011, dated 2015).

Structures can show the parent of a compound that is named as a salt.

Sequence of JAK2 (recombinant purified GST-tagged catalytic domain) (O60674 849-1124): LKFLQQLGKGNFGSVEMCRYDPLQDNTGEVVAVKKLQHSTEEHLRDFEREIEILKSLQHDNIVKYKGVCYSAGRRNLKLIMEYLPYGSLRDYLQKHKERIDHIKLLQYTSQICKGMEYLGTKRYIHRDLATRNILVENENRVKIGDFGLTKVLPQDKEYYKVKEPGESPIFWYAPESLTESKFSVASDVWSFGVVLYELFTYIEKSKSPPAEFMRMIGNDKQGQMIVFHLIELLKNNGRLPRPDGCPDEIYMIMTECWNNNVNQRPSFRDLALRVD

In the first assay the target is JAK1 (recombinant purified GST-tagged catalytic domain) (Homo sapiens (Human), UniProt P23458).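 Note: biochemical assay with HTRF read-out.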
Sequence of JAK1 (recombinant purified GST-tagged catalytic domain) (P23458 875-1153): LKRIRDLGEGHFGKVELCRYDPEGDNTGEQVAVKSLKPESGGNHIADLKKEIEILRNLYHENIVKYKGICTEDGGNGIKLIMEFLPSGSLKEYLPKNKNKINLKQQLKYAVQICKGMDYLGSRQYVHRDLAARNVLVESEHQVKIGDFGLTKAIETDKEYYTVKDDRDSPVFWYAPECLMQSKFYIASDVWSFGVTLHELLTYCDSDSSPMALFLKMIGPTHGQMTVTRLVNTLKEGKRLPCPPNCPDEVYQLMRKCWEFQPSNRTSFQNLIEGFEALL
Experiment: not given
As usually defined, the IC50 is the concentration needed to halve the response being measured. On to `CN(C)[C@@H]1CC[C@H](n2cc(C(N)=O)c(Nc3ccc(S(=O)(=O)C(F)(F)F)cc3)n2)[C@@H](C#N)C1` (mixture of isomers) [Example 27-2, 1-[(1R,3S,4S and 1S,3R,4R)-4-[4-carbamoyl-3-({4-[(trifluoromethyl)sulfonyl]phenyl}amino)-1H-pyrazol-1-yl]-3-cyano-N,N-dimethylcyclohexanaminium trifluoroacetate], for which the 50% inhibitory concentration (IC50) is 0.5 nM. For the compound `CC(O)(c1ccc(Nc2nn([C@H]3CCCC[C@@H]3C#N)cc2C(N)=O)cn1)C(F)F` (single isomer, unassigned) [Example 17-40, 1-[(1S,2S or 1R,2R)-2-cyanocyclohexyl]-3-({6-[(1R or 1S)-2,2-difluoro-1-hydroxy-1-methylethyl]pyridin-3-yl}amino)-1H-pyrazole-4-carboxamide], the IC50 turned out to be 0.24 nM. Same read-out and setting: under `N#C[C@H]1C[C@H](O)CC[C@@H]1n1cc(C(N)=O)c(Nc2ccc(C(F)(F)F)cc2)n1` (single isomer, unassigned) [Example 25-24, 1-[(1S,2S,4R or 1R,2R,4S)-2-cyano-4-hydroxycyclohexyl]-3-{[4-(trifluoromethyl)phenyl]amino}-1H-pyrazole-4-carboxamide] stands 1 nM. The same measure, in the same setting: under `CC1(C)CN([C@H]2CC[C@H](n3cc(C(N)=O)c(Nc4ccnc(F)c4)n3)[C@@H](C#N)C2)C1` (single isomer, unassigned) [Example 28-134, 1-[(1S,2S,4S or 1R,2R,4R )-2-cyano-4-(3,3-dimethylazetidin-1-yl)cyclohexyl]-3-[(2-fluoropyridin-4-yl)amino]-1H-pyrazole-4-carboxamide] stands 1 nM; under `CC1(N[C@H]2CCC(n3cc(C(N)=O)c(Nc4ccc(Cl)cc4)n3)[C@@H](C#N)C2)CC1` (single isomer, unassigned) [Example 28-205, 3-[(4-chlorophenyl)amino]-1-{(1S,2S,4S or 1R,2R,4R,)-2-cyano-4-[(1-methylcyclopropyl)amino]cyclo-hexyl}-1H-pyrazole-4-carboxamide], 0.9 nM; under `COCC(C)N(C)[C@H]1CCC(n2cc(C(N)=O)c(Nc3ccc(Cl)cc3)n2)[C@@H](C#N)C1` (single isomer, unassigned) [Example 28-241, 3-[(4-chlorophenyl)amino]-1-[(1R,2S,4S1S,2S,4S or 1R,2R,4R)-2-cyano-4-{[(1S or 1R)-2-methoxy-1-methylethyl](methyl)ami-no}cyclohexyl]-1H-pyrazole-4-carboxamide], 2 nM.

For the compound `CC(C)(C)OC(=O)C1CCC(n2cc(C(N)=O)c(Nc3ccc(S(=O)(=O)C(F)(F)F)cc3)n2)C(C#N)C1` (stereo not drawn) [Example 17-2, tert-butyl 4-[4-carbamoyl-3-({4-[(trifluoromethyl)sulfonyl]phenyl}amino)-1H-pyrazol-1-yl]-3-cyanocyclohexanecarboxylate], the IC50 amounted to 23 nM. On the same count and under the same terms, with `Cc1cncc(Nc2nn([C@H]3CCCC[C@@H]3C#N)cc2C(N)=O)c1` [Example 17-73, 1-[(1S,2S)-2-cyanocyclohexyl]-3-[(5-methylpyridin-3-yl)amino]-1H-pyrazole-4-carboxamide] the figure was 16 nM; with `C[N+]1([C@H]2CC[C@H](n3cc(C(N)=O)c(Nc4ccc(Cl)cc4)n3)[C@@H](C#N)C2)CCC1` [Example 31-2, 1-[(1S,3S,4S)-4-{4-carbamoyl-3-[(4-chlorophenyl)amino]-1H-pyrazol-1-yl}-3-cyanocyclohexyl]-1-methylazetidinium], 1 nM; with `N#C[C@H]1C[C@@H]([N+]2(CC3CC3)CCC2)CC[C@@H]1n1cc(C(N)=O)c(Nc2ccc(Cl)cc2)n1` [Example 31-5, 1-[(1S,3S,4S)-4-{4-carbamoyl-3-[(4-chlorophenyl)amino]-1H-pyrazol-1-yl}-3-cyanocyclohexyl]-1-(cyclopropylmethyl)azetidinium], 0.85 nM.

The next assay concerns the target JAK2 (recombinant purified GST-tagged catalytic domain) (Homo sapiens (Human), UniProt O60674). The assay can be described thus: biochemical.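 Note: biochemical JAK kinase assay with HTRF detection.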
For `N#C[C@H]1C[C@H](O)CC[C@@H]1n1cc(C(N)=O)c(Nc2ccc(C(F)(F)F)cc2)n1` (single isomer, unassigned) [Example 25-24, 1-[(1S,2S,4R or 1R,2R,4S)-2-cyano-4-hydroxycyclohexyl]-3-{[4-(trifluoromethyl)phenyl]amino}-1H-pyrazole-4-carboxamide], the IC50 worked out at 8 nM. For the compound `COCC(C)N(C)[C@H]1CCC(n2cc(C(N)=O)c(Nc3ccc(Cl)cc3)n2)[C@@H](C#N)C1` (single isomer, unassigned) [Example 28-241, 3-[(4-chlorophenyl)amino]-1-[(1R,2S,4S1S,2S,4S or 1R,2R,4R)-2-cyano-4-{[(1S or 1R)-2-methoxy-1-methylethyl](methyl)ami-no}cyclohexyl]-1H-pyrazole-4-carboxamide], the IC50 is 28 nM.
